Tested on: IL-12 induced STAT4 phosphorlyation mediated by TYK2/JAK2
Assay: IL-12 Induced pSTAT4 in Human PBMC
Format: cell-based
Conditions: 1.7 ng/mL IL-12 for 30 minutes
In short: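 pSTAT4 and total STAT4 quantified by MSD in lysates of cryopreserved human PBMC after 30-minute stimulation with 1.7 ng/mL IL-12 (final). Compound was added 1 hr beforehand at 37° C, 0.1% DMSO final.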

SMILES	IC50 [µM]	IC50 (0.5 h) [µM]
CNc1cc(-c2cnc3n([C@@H]4COC[C@H]4O)cccc2-3)nc2c(C(=O)NC3CCC3(F)F)cnn12 (stereo partly drawn) [Compound I-901]	< 0.1	–
CNc1cc(-c2cnc3n([C@@H]4COC[C@H]4O)cccc2-3)nc2c(C(=O)N[C@H]3CCC3(F)F)cnn12 [Compound I-902]	< 0.1	–
CNc1cc(-c2cn([C@H]3C[C@@H](COC)C3)c3ncccc23)nc2c(C(=O)NC3CC[C@H]3O)cnn12 (stereo partly drawn) [Compound I-912]	< 0.1	–
CNc1cc(-c2cn([C@H]3C[C@@H](COC)C3)c3ncccc23)nc2c(C(=O)N[C@@H]3CC[C@@H]3O)cnn12 [Compound I-914]	< 0.1	–
CNc1cc(-c2cn([C@H]3[C@@H]4COC[C@@H]43)c3ncccc23)nc2c(C(=O)N[C@H]3CC[C@@H]3O)cnn12 [Compound I-915]	< 0.1	–
CNc1cc(-c2cn([C@H]3CCOC[C@@H]3F)c3ncccc23)nc2c(C(=O)N[C@H]3CC[C@H]3O)cnn12 [Compound I-916]	0.1 to 0.5	–
CNc1cc(-c2cn([C@@H]3CCOC[C@H]3F)c3ncccc23)nc2c(C(=O)N[C@H]3CC[C@H]3O)cnn12 [Compound I-918]	< 0.1	–
CNc1cc(-c2cn(CC(=O)N(C)C)c3ncccc23)nc2c(C(=O)N[C@H]3CC[C@@H]3OC)cnn12 [Compound I-921]	< 0.1	–
CNc1cc(-c2cn(CCOC)c3ncccc23)nc2c(C(=O)N[C@H]3CC[C@@H]3OC)cnn12 [Compound I-923]	< 0.1	–
CNc1cc(-c2cn([C@H]3C[C@@H](OC)C3)c3ncccc23)nc2c(C(=O)NC3CC[C@@H]3OC)cnn12 (stereo partly drawn) [Compound I-925, N-(2-methoxycyclobutyl)-5-(1-((1s,3S)-3-methoxycyclobutyl)-1H-pyrrolo[2,3-b]pyridin-3-yl)-7-(methylamino)pyrazolo[1,5-a]pyrimidine-3-carboxamide]	–	< 0.1
CNc1cc(-c2cn(CC(=O)N3CCC3)c3ncccc23)nc2c(C(=O)N[C@H]3CC[C@@H]3OC)cnn12 [Compound I-929]	0.1 to 0.5	–
CNc1cc(-c2cn(CC(=O)N3CCCC3)c3ncccc23)nc2c(C(=O)NC3CC[C@@H]3OC)cnn12 (stereo partly drawn) [Compound I-931]	0.1 to 0.5	–
CNc1cc(-c2cn([C@H]3C[C@@H](COC)C3)c3ncccc23)nc2c(C(=O)NC3CC[C@@H]3OC)cnn12 (stereo partly drawn) [Compound I-932, N-(2-methoxycyclobutyl)-5-(1-((1s,3R)-3-(methoxymethyl)cyclobutyl)-1H-pyrrolo[2,3-b]pyridin-3-yl)-7-(methylamino)pyrazolo[1,5-a]pyrimidine-3-carboxamide]	–	< 0.1
CNc1cc(-c2cn([C@@H]3CCOC[C@H]3F)c3ncccc23)nc2c(C(=O)N[C@H]3COC[C@H]3O)cnn12 [Compound I-937]	0.1 to 0.5	–
CNc1cc(-c2cnc3n([C@@H]4CCOC[C@@H]4F)cccc2-3)nc2c(C(=O)NC3CC[C@H]3O)cnn12 (stereo partly drawn) [Compound I-939, 5-(7-((3R,4R)-3-fluorotetrahydro-2H-pyran-4-yl)-7H-pyrrolo[2,3-b]pyridin-3-yl)-N-((cis-1,2)-2-hydroxycyclobutyl)-7-(methylamino)pyrazolo[1,5-a]pyrimidine-3-carboxamide]	–	0.1 to 0.5
CNc1cc(-c2cnc3n([C@H]4CCOC[C@H]4F)cccc2-3)nc2c(C(=O)NC3CC[C@H]3O)cnn12 (stereo partly drawn) [Compound I-942]	0.5 to 1	–
CNc1cc(-c2cnc3n([C@@H]4CN(C)C[C@H]4OC)cccc2-3)nc2c(C(=O)NC3CC[C@@H]3OC)cnn12 (stereo partly drawn) [Compound I-943]	< 0.1	–
CNc1cc(-c2cnc3n([C@@H]4CN(C)C[C@H]4OC)cccc2-3)nc2c(C(=O)N[C@H]3CC[C@@H]3OC)cnn12 [Compound I-944]	< 0.1	–
CNc1cc(-c2cnc3n([C@H]4CN(C)C[C@@H]4OC)cccc2-3)nc2c(C(=O)N[C@H]3CC[C@@H]3OC)cnn12 [Compound I-947]	< 0.1	–
CNc1cc(-c2cn(CC(=O)N3CCOCC3)c3ncccc23)nc2c(C(=O)N[C@H]3CC[C@@H]3OC)cnn12 [Compound I-963]	0.1 to 0.5	–
CNc1cc(-c2cn(CC(=O)N3CCCC3)c3ncccc23)nc2c(C(=O)N[C@H]3CC[C@@H]3OC)cnn12 [Compound I-965]	< 0.1	–
CNc1cc(Nc2cccn(C3CCOCC3)c2=O)nc2c(C(=O)N[C@@H]3CC[C@]3(O)C(F)(F)F)cnn12 [Compound I-976]	0.1 to 0.5	–
CNc1cc(-c2cnc3n(CC(=O)N4CCC4)cccc2-3)nc2c(C(=O)N[C@H]3CC[C@@H]3OC)cnn12 [Compound I-977]	> 1	–

SMILES	IC50 [µM]	IC50 (0.5 h) [µM]
CNc1cc(-c2cnc3n(CC(C)(C)O)cccc2-3)nc2c(C(=O)N[C@H]3CC[C@@H]3OC)cnn12 [Compound I-983]	< 0.1	–
CNc1cc(-c2cnc3n(CCCN4CCOCC4)cccc2-3)nc2c(C(=O)N[C@H]3CC[C@@H]3OC)cnn12 [Compound I-990]	< 0.1	–
CNc1cc(-c2cn(C(C)C)c3nnccc23)nc2c(C(=O)NC3CC[C@@H]3OC)cnn12 (stereo partly drawn) [Compound I-993]	< 0.1	–
CNc1cc(-c2cnc3n([C@H]4CCOC4)cccc2-3)nc2c(C(=O)NC3CC[C@@H]3OC)cnn12 (stereo partly drawn) [Compound I-994, N-(2-methoxycyclobutyl)-7-(methylamino)-5-(7-((S)-tetrahydrofuran-3-yl)-7H-pyrrolo[2,3-b]pyridin-3-yl)pyrazolo[1,5-a]pyrimidine-3-carboxamide]	–	< 0.1
CNc1cc(-c2cnc3n([C@@H]4CCOC4)cccc2-3)nc2c(C(=O)NC3CC[C@@H]3OC)cnn12 (stereo partly drawn) [Compound I-995]	< 0.1	–
CO[C@H]1CCC1NC(=O)c1cnn2c(N)cc(-c3cnc4n([C@H]5COC[C@@H]5OC)cccc3-4)nc12 (stereo partly drawn) [Compound I-999]	0.1 to 0.5	–
CNc1cc(-c2cn(C(C)C)c3nnccc23)nc2c(C(=O)N[C@H]3CC[C@H]3O)cnn12 [Compound I-1000]	0.5 to 1	–
CNc1cc(-c2cnc3n([C@H]4CCOC4)cccc2-3)nc2c(C(=O)N[C@H]3CC[C@@H]3OC)cnn12 [Compound I-1002]	< 0.1	–
CNc1cc(-c2cnc3n([C@@H]4CCOC4)cccc2-3)nc2c(C(=O)N[C@H]3CC[C@@H]3OC)cnn12 [Compound I-1004]	< 0.1	–
CNc1cc(-c2cnc3n([C@@H]4CCOC4)cccc2-3)nc2c(C(=O)N[C@@H]3CC[C@H]3OC)cnn12 [Compound I-1005]	0.1 to 0.5	–
CO[C@H]1CC[C@@H]1NC(=O)c1cnn2c(N)cc(-c3cnc4n([C@H]5COC[C@@H]5OC)cccc3-4)nc12 [Compound I-1006]	< 0.1	–
CNc1cc(-c2cn(C(C)C)c3nnccc23)nc2c(C(=O)N[C@@H]3CC[C@H]3OC)cnn12 [Compound I-1009]	< 0.1	–
CO[C@H]1CC[C@@H]1NC(=O)c1cnn2c(N)cc(-c3cnc4n([C@@H]5COC[C@H]5OC)cccc3-4)nc12 [Compound I-1010]	0.1 to 0.5	–
CNc1cc(-c2cn([C@@H]3CC(=O)N(C)C3)c3ncccc23)nc2c(C(=O)NC3CC[C@@H]3OC)cnn12 (stereo partly drawn) [Compound I-1016, N-(2-methoxycyclobutyl)-5-(1-((R)-1-methyl-5-oxopyrrolidin-3-yl)-1H-pyrrolo[2,3-b]pyridin-3-yl)-7-(methylamino)pyrazolo[1,5-a]pyrimidine-3-carboxamide]	–	0.1 to 0.5
CNc1cc(-c2cn([C@H]3CC(=O)N(C)C3)c3ncccc23)nc2c(C(=O)NC3CC[C@@H]3OC)cnn12 (stereo partly drawn) [Compound I-1017]	0.1 to 0.5	–
CNc1cc(-c2cn([C@H]3CO[C@@H](COC)C3)c3ncccc23)nc2c(C(=O)N[C@H]3CC[C@@H]3OC)cnn12 [Compound I-1018, N-((1S,2S)-2-methoxycyclobutyl)-5-(1-(5-(methoxymethyl)tetrahydrofuran-3-yl)-1H-pyrrolo[2,3-b]pyridin-3-yl)-7-(methylamino)pyrazolo[1,5-a]pyrimidine-3-carboxamide]	–	< 0.1
CNc1cc(-c2cn([C@@H]3CC(=O)N(C)C3)c3ncccc23)nc2c(C(=O)N[C@H]3CC[C@@H]3OC)cnn12 [Compound I-1022]	0.1 to 0.5	–
CNc1cc(-c2cn([C@H]3CC(=O)N(C)C3)c3ncccc23)nc2c(C(=O)N[C@H]3CC[C@@H]3OC)cnn12 [Compound I-1024]	< 0.1	–
CNc1cc(-c2cn([C@@H]3CC(=O)N(C4CCOCC4)C3)c3ncccc23)nc2c(C(=O)NC3CC[C@@H]3OC)cnn12 (stereo partly drawn) [Compound I-1026, N-(2-methoxycyclobutyl)-7-(methylamino)-5-(1-((R)-5-oxo-1-(tetrahydro-2H-pyran-4-yl)pyrrolidin-3-yl)-1H-pyrrolo[2,3-b]pyridin-3-yl)pyrazolo[1,5-a]pyrimidine-3-carboxamide]	–	0.1 to 0.5
CNc1cc(-c2cn([C@H]3CC(=O)N(C4CCOCC4)C3)c3ncccc23)nc2c(C(=O)NC3CC[C@@H]3OC)cnn12 (stereo partly drawn) [Compound I-1027]	0.1 to 0.5	–
CNc1cc(-c2cn([C@@H]3CC(=O)N(C4CCOCC4)C3)c3ncccc23)nc2c(C(=O)N[C@H]3CC[C@@H]3OC)cnn12 [Compound I-1028]	0.1 to 0.5	–
CNc1cc(-c2cn([C@H]3CC(=O)N(C4CCOCC4)C3)c3ncccc23)nc2c(C(=O)N[C@H]3CC[C@@H]3OC)cnn12 [Compound I-1030]	0.1 to 0.5	–
